Data published in US12540128B2, “Substituted pyridazinones as herbicides” (SYNGENTA CROP PROTECTION AG, priority 2019, dated 2026).

What was measured:
Type in all cases: in vivo
Conditions in all cases: 250 g/ha, after 13 days
[1] = test system: Ipomoea hederacea (IPOHE); assay: B4 Pre-Emergence Efficacy Test 2
Description: (§1) Seeds of a variety of test species were sown in standard soil in pots: Amaranthus retoflexus (AMARE), Setaria faberi (SETFA), Echinochloa crus-galli (ECHCG), Ipomoea hederacea (IPOHE), Zea Mays (ZEAMX), Abutilon theophrasti (ABUTH). After cultivation for one day (pre-emergence) under controlled conditions in a glasshouse (at 24/16° C., day/night; 14 hours light; 65% humidity), the plants were sprayed with an aqueous spray solution derived from the formulation of the technical active ingredient in acetone/water (50:50) solution containing 0.5% Tween 20 (polyoxyethelyene sorbitan monolaurate, CAS RN 9005-64-5). Compounds are applied at 250 g/ha. The test plants were then grown in a glasshouse under controlled conditions (at 24/16° C., day/night; 14 hours light; 65% humidity) and watered twice daily. After 13 days, the test is evaluated for the percentage damage caused to the plant. The biological activities are assessed on a five point scale (5=80-100%; 4=60-79%; 3=40-59%; 2=20-39%; 1=0-19%). A blank value in the table is indicative that the compound was not tested on that species.

[2] = test system: Amaranthus retoflexus (AMARE); assay: B4 Pre-Emergence Efficacy Test 2
Description: as §1

[3] = test system: Echinochloa crus-galli (ECHCG); assay: B4 Pre-Emergence Efficacy Test 2
Description: as §1

Zea Mays (ZEAMX) [4] = assay: B4 Pre-Emergence Efficacy Test 2
Description: as §1

[5] = test system: Abutilon theophrasti (ABUTH); assay: B4 Pre-Emergence Efficacy Test 2
Description: as §1

Setaria faberi (SETFA) [6] = assay: B4 Pre-Emergence Efficacy Test 2
Description: as §1

[7] = test system: Ipomoea hederacea (IPOHE); assay: B2 Post-Emergence Efficacy Test 2
Description: (§2) Seeds of a variety of test species are sown in standard soil in pots:— Amaranthus retoflexus (AMARE), Setaria faberi (SETFA), Echinochloa crus-galli (ECHCG), Ipomoea hederacea (IPOHE), Zea Mays (ZEAMX), Abutilon theophrasti (ABUTH). After 8 days cultivation (post-emergence) under controlled conditions in a glasshouse (at 24/16° C., day/night; 14 hours light; 65% humidity), the plants are sprayed with an aqueous spray solution derived from the formulation of the technical active ingredient in acetone/water (50:50) solution containing 0.5% Tween 20 (polyoxyethylene sorbitan monolaurate, CAS RN 9005-64-5). Compounds are applied at 250 g/ha. The test plants are then grown in a glasshouse under controlled conditions in a glasshouse (at 24/16° C., day/night; 14 hours light; 65% humidity) and watered twice daily. After 13 days, the test is evaluated for the percentage damage caused to the plant. The biological activities are assessed on a five point scale (5=80-100%; 4=60-79%; 3=40-59%; 2=20-39%; 1=0-19%). A blank value in the table is indicative that the compound was not tested on that species.

[8] = test system: Amaranthus retoflexus (AMARE); assay: B2 Post-Emergence Efficacy Test 2
Description: as §2

[9] = test system: Echinochloa crus-galli (ECHCG); assay: B2 Post-Emergence Efficacy Test 2
Description: as §2

Zea Mays (ZEAMX) [10] = assay: B2 Post-Emergence Efficacy Test 2
Description: as §2

[11] = test system: Abutilon theophrasti (ABUTH); assay: B2 Post-Emergence Efficacy Test 2
Description: as §2

Setaria faberi (SETFA) [12] = assay: B2 Post-Emergence Efficacy Test 2
Description: as §2

Structure (SMILES)	percentage damage caused to the plant, five point scale, IPOHE [1]	percentage damage caused to the plant, five point scale, AMARE [2]	percentage damage caused to the plant, five point scale, ECHCG [3]	percentage damage caused to the plant, five point scale, ZEAMX (Zea Mays (ZEAMX) [4])	percentage damage caused to the plant, five point scale, ABUTH [5]	percentage damage caused to the plant, five point scale, SETFA (Setaria faberi (SETFA) [6])	percentage damage caused to the plant, five point scale, IPOHE [7]	percentage damage caused to the plant, five point scale, AMARE [8]	percentage damage caused to the plant, five point scale, ECHCG [9]	percentage damage caused to the plant, five point scale, ZEAMX (Zea Mays (ZEAMX) [10])	percentage damage caused to the plant, five point scale, ABUTH [11]	percentage damage caused to the plant, five point scale, SETFA (Setaria faberi (SETFA) [12])
Cc1nn(C)c(=O)c(-c2c(F)ccc(Cl)c2CCc2ccc3c(C)noc3c2)c1O [Compound 1.351]	5 (5=80-100%)	5 (5=80-100%)	5 (5=80-100%)	5 (5=80-100%)	5 (5=80-100%)	5 (5=80-100%)	5 (5=80-100%)	5 (5=80-100%)	4 (4=60-79%)	5 (5=80-100%)	5 (5=80-100%)	4 (4=60-79%)
Cc1nn(C)c(=O)c(-c2c(F)ccc(Cl)c2CCc2ccc3c(ccn3C)c2)c1O [Compound 1.356]	2 (2=20-39%)	3 (3=40-59%)	1 (1=0-19%)	0	1 (1=0-19%)	1 (1=0-19%)	4 (4=60-79%)	5 (5=80-100%)	4 (4=60-79%)	2 (2=20-39%)	4 (4=60-79%)	5 (5=80-100%)
Cc1nn(C)c(=O)c(-c2c(F)ccc(Cl)c2CCc2ccc3occc3c2)c1O [Compound 1.346]	3 (3=40-59%)	3 (3=40-59%)	0	1 (1=0-19%)	4 (4=60-79%)	0	3 (3=40-59%)	2 (2=20-39%)	4 (4=60-79%)	2 (2=20-39%)	4 (4=60-79%)	0
Cc1nn(C)c(=O)c(-c2c(F)ccc(Cl)c2CCc2nc3ccccc3o2)c1O [Compound 1.359]	4 (4=60-79%)	5 (5=80-100%)	5 (5=80-100%)	3 (3=40-59%)	5 (5=80-100%)	5 (5=80-100%)	2 (2=20-39%)	3 (3=40-59%)	3 (3=40-59%)	1 (1=0-19%)	4 (4=60-79%)	3 (3=40-59%)
Cc1nc2ccc(CCc3c(Cl)ccc(F)c3-c3c(O)c(C)nn(C)c3=O)cc2o1 [Compound 1.341]	5 (5=80-100%)	5 (5=80-100%)	5 (5=80-100%)	4 (4=60-79%)	5 (5=80-100%)	5 (5=80-100%)	5 (5=80-100%)	5 (5=80-100%)	5 (5=80-100%)	4 (4=60-79%)	5 (5=80-100%)	4 (4=60-79%)
Cc1nn(C)c(=O)c(-c2c(F)ccc(Cl)c2CCc2cnc3c(ccn3C)c2)c1O [Compound 1.345]	5 (5=80-100%)	5 (5=80-100%)	2 (2=20-39%)	1 (1=0-19%)	4 (4=60-79%)	5 (5=80-100%)	4 (4=60-79%)	4 (4=60-79%)	3 (3=40-59%)	2 (2=20-39%)	4 (4=60-79%)	4 (4=60-79%)
Cc1nn(C)c(=O)c(-c2c(F)ccc(Cl)c2CCc2ccc3scnc3c2)c1O [Compound 1.350, 4-[2-[2-(1,3-benzothiazol-5-yl)ethyl]-3-chloro-6-fluoro-phenyl]-5-hydroxy-2,6-dimethyl-pyridazin-3-one]	5 (5=80-100%)	5 (5=80-100%)	5 (5=80-100%)	4 (4=60-79%)	5 (5=80-100%)	5 (5=80-100%)	3 (3=40-59%)	4 (4=60-79%)	4 (4=60-79%)	3 (3=40-59%)	5 (5=80-100%)	4 (4=60-79%)
Cc1nn(C)c(=O)c(-c2c(F)ccc(Cl)c2CCc2ccc3ccccc3c2)c1O [Compound 1.053]	1 (1=0-19%)	4 (4=60-79%)	2 (2=20-39%)	1 (1=0-19%)	2 (2=20-39%)	2 (2=20-39%)	4 (4=60-79%)	4 (4=60-79%)	3 (3=40-59%)	4 (4=60-79%)	3 (3=40-59%)	4 (4=60-79%)
Cc1nn(C)c(=O)c(-c2c(F)ccc(Cl)c2CCc2ccc3cnn(C)c3c2)c1O [Compound 1.353]	5 (5=80-100%)	5 (5=80-100%)	5 (5=80-100%)	4 (4=60-79%)	4 (4=60-79%)	5 (5=80-100%)	3 (3=40-59%)	4 (4=60-79%)	4 (4=60-79%)	3 (3=40-59%)	4 (4=60-79%)	4 (4=60-79%)
